In ChEMBL document CHEMBL1136141, “2-Phenyl-5,6-dihydro-2H-thieno[3,2-c]pyrazol-3-ol derivatives as new inhibitors of bacterial cell wall biosynthesis” (Bioorg Med Chem Lett, 2003):
In brackets after ≈: the same amount, converted by molar mass.

Key:
[1] = test system: Escherichia coli; test: Minimum inhibitory activity against Escherichia coli GC 4559; assay type: functional
[2] = test system: Escherichia coli; test: Minimum inhibitory activity against Escherichia coli GC 4560; assay type: functional
[3] = test system: Enterococcus faecalis; test: Minimum inhibitory activity against Enterococcus faecalis GC 2242 (VRE); assay type: functional
[4] = test system: Enterococcus faecalis; test: Minimum inhibitory activity against Enterococcus faecalis GC 4555 (ATCC); assay type: functional
[5] = Minimum inhibitory activity against MSCNS GC 646; assay type: functional
[6] = Minimum inhibitory activity against Streptococcus pneumoniae GC1894 (PRSP); assay type: functional
[7] = Minimum inhibitory activity in presence of 4% bovine serum albumin against Streptococcus pneumoniae GC1894 (PRSP); assay type: functional
[8] = test system: Staphylococcus aureus; test: Minimum inhibitory activity against Staphylococcus aureus GC 1131 (MRSA); assay type: functional
[9] = test system: Staphylococcus aureus; test: Minimum inhibitory activity against Staphylococcus aureus GC 2216 (ATCC); assay type: functional
[10] = test system: Staphylococcus aureus; test: Minimum inhibitory activity against Staphylococcus aureus GC 4543 (MSSA); assay type: functional
[11] = target: T1, UDP-N-acetylmuramate--L-alanine ligase (Staphylococcus aureus, UniProt O31211); test: In vitro inhibitory activity against Staphylococcus aureus UDP-N-acetylmuramoyl-L-alanine synthetase
T1 sequence (O31211 whole entry): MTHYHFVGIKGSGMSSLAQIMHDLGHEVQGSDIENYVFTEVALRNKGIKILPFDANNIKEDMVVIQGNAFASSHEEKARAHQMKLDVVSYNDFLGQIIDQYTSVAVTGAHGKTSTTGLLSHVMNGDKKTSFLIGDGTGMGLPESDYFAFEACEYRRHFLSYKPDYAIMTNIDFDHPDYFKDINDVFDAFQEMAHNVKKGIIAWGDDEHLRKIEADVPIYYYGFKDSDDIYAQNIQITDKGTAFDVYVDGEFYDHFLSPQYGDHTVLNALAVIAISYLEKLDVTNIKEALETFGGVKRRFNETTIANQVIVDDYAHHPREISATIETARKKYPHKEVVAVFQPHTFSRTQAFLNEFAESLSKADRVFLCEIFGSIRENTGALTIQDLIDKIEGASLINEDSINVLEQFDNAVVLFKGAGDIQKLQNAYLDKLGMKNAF

[12] = target: T2, UDP-N-acetylenolpyruvoylglucosamine reductase (Staphylococcus aureus, UniProt P61431); test: In vitro inhibitory activity against Staphylococcus aureus UDP-N-acetylmuramate dehydrogenase
T2 sequence (P61431 whole entry): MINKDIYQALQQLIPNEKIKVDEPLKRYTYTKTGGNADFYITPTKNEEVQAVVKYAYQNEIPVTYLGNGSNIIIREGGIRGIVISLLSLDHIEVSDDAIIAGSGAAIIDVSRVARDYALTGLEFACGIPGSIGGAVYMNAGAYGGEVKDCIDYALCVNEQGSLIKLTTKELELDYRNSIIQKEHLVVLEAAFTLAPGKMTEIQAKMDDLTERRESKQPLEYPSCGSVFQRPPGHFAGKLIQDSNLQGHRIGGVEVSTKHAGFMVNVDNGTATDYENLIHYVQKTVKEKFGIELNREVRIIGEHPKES

[13] = target: T3, UDP-N-acetylmuramoylalanine--D-glutamate ligase (Staphylococcus aureus, UniProt P0A091); test: In vitro inhibitory activity against Staphylococcus aureus UDP-N-acetylmuramoyl-L-alanyl-D-glutamate synthetase
T3 sequence (P0A091 whole entry): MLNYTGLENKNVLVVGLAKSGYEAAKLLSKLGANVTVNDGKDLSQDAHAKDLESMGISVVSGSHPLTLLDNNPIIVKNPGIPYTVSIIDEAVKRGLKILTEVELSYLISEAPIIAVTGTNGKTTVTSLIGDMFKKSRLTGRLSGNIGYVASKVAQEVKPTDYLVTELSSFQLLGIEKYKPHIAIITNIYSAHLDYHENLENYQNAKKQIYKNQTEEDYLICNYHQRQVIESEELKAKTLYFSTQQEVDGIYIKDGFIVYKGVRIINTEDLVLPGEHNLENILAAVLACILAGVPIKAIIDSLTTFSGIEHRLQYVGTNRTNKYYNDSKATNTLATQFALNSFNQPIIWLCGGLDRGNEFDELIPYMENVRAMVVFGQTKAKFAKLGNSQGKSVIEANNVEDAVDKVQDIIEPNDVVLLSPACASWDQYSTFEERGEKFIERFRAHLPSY

Structure (SMILES)	MIC [1] [µg/mL]	MIC [2] [µg/mL]	MIC [3] [µg/mL]	MIC [4] [µg/mL]	MIC ([5]; Staphylococcus) [µg/mL]	MIC [6] [µg/mL]	MIC [7] [µg/mL]	MIC [8] [µg/mL]	MIC [9] [µg/mL]	MIC [10] [µg/mL]	IC50 [11] [µM]	IC50 [12] [µM]	IC50 [13] [µM]	MIC [5] [µg/mL]
Oc1c2c(nn1-c1ccc(Br)cc1)CCS2	> 128	> 128	32 (≈ 108 µM)	16 (≈ 53.8 µM)	1 (≈ 3.36 µM)	1 (≈ 3.36 µM)	> 128	16 (≈ 53.8 µM)	2 (≈ 6.73 µM)	4 (≈ 13.5 µM)	38.4	12.1	30.3	
Oc1c2c(nn1-c1ccc(C(F)(F)F)cc1)CCS2	> 128	128 (≈ 447 µM)	8 (≈ 27.9 µM)	16 (≈ 55.9 µM)	4 (≈ 14 µM)	0.5 (≈ 1.75 µM)	> 128	8 (≈ 27.9 µM)	2 (≈ 6.99 µM)	1 (≈ 3.49 µM)	> 87.3	38.4	43	
Oc1c2c(nn1-c1ccccc1)CCS2	> 128	> 128	4 (≈ 18.3 µM)	32 (≈ 147 µM)		4 (≈ 18.3 µM)	> 128	16 (≈ 73.3 µM)	16 (≈ 73.3 µM)	32 (≈ 147 µM)	> 115	> 115	94.8	16 (≈ 73.3 µM)
O=[N+]([O-])c1ccc(-n2nc3c(c2O)SCC3)cc1	> 128	> 128	64 (≈ 243 µM)	32 (≈ 122 µM)	1 (≈ 3.8 µM)	4 (≈ 15.2 µM)	> 128	64 (≈ 243 µM)	4 (≈ 15.2 µM)	2 (≈ 7.6 µM)	72.5	21.3	36.1	
Oc1c2c(nn1-c1cccc(Cl)c1)CCS2	> 128	> 128	8 (≈ 31.7 µM)	32 (≈ 127 µM)	32 (≈ 127 µM)	2 (≈ 7.91 µM)	> 128	32 (≈ 127 µM)	8 (≈ 31.7 µM)	32 (≈ 127 µM)	62.5	> 98.9	32.8	
Oc1c2c(nn1-c1cc(C(F)(F)F)cc(C(F)(F)F)c1)CCS2	> 128	> 128	16 (≈ 45.2 µM)	32 (≈ 90.3 µM)	> 128	2 (≈ 5.65 µM)	> 128	32 (≈ 90.3 µM)	32 (≈ 90.3 µM)	32 (≈ 90.3 µM)	> 70.6	> 70.6	> 70.6	
Oc1c2c(nn1-c1ccc(Cl)cc1)CC(c1ccccc1)S2 (centres undefined)	> 128	128 (≈ 389 µM)	64 (≈ 195 µM)	> 128	128 (≈ 389 µM)	64 (≈ 195 µM)	> 128	128 (≈ 389 µM)	64 (≈ 195 µM)	128 (≈ 389 µM)	> 76	33.5	74.5	
Oc1c2c(nn1-c1ccc(F)cc1)CCS2	> 128	32 (≈ 135 µM)	8 (≈ 33.9 µM)	8 (≈ 33.9 µM)	0.25 (≈ 1.06 µM)	2 (≈ 8.46 µM)	> 128	2 (≈ 8.46 µM)	2 (≈ 8.46 µM)	4 (≈ 16.9 µM)	> 106	50.8	> 106	
CC(C)(C)c1ccc(-n2nc3c(c2O)SCC3)cc1	> 128	> 128	> 128	> 128	> 128	64 (≈ 233 µM)	> 128	> 128	> 128	128 (≈ 466 µM)	> 91.1	> 91.1	> 91.1	
CN[C@H](CC(C)C)C(=O)N[C@H]1C(=O)N[C@@H](CC(N)=O)C(=O)N[C@H]2C(=O)N[C@H]3C(=O)N[C@H](C(=O)N[C@H](C(=O)O)c4cc(O)cc(O)c4-c4cc3ccc4O)[C@H](O)c3ccc(c(Cl)c3)Oc3cc2cc(c3O[C@@H]2O[C@H](CO)[C@@H](O)[C@H](O)[C@H]2O[C@H]2C[C@](C)(N)[C@H](O)[C@H](C)O2)Oc2ccc(cc2Cl)[C@H]1O [VANCOMYCIN]	> 128	0.25 (≈ 0.173 µM)	> 128	2 (≈ 1.38 µM)		< 0.12								
Oc1c2c(nn1-c1ccccc1C(F)(F)F)CCS2	> 128	128 (≈ 447 µM)	16 (≈ 55.9 µM)	32 (≈ 112 µM)	64 (≈ 224 µM)	8 (≈ 27.9 µM)	> 128	32 (≈ 112 µM)	32 (≈ 112 µM)	32 (≈ 112 µM)	> 87.3	> 87.3	> 87.3	
Oc1c2c(nn1-c1cccc(C(F)(F)F)c1)CCS2	> 128	128 (≈ 447 µM)	8 (≈ 27.9 µM)	16 (≈ 55.9 µM)	2 (≈ 6.99 µM)	0.5 (≈ 1.75 µM)	> 128	4 (≈ 14 µM)	2 (≈ 6.99 µM)	1 (≈ 3.49 µM)	> 87.3	73.4	67.1	
O=[N+]([O-])c1cccc(-n2nc3c(c2O)SCC3)c1	> 128	> 128	32 (≈ 122 µM)	64 (≈ 243 µM)	32 (≈ 122 µM)	4 (≈ 15.2 µM)	> 128	32 (≈ 122 µM)	16 (≈ 60.8 µM)	32 (≈ 122 µM)	87.7	23.5	34.6	
CC(C)c1ccc(-n2nc3c(c2O)SCC3)cc1	> 128	> 128	> 128	> 128	128 (≈ 492 µM)	32 (≈ 123 µM)	> 128	128 (≈ 492 µM)	128 (≈ 492 µM)	128 (≈ 492 µM)	> 96	> 96	> 96	
